Results on 4 compounds are retold here after US20110218107A1 (priority 2010, published 2011).

Where two headings read alike, the source gives them in different places.

The subject of one experiment is vines. Conditions: cited from earlier work.
Experiment [1] has as its system tomato plants of the cultivar "Harzfeuer". As to the kind of experiment: Greenhouse test tomato under zinc deficiency: plant weight and plant height. As to conditions: 0% Zn supply. It is filed as in vivo. The protocol:
(§1) Greenhouse experiments (Examples A and B) were carried out to evaluate the effect of fungicide applications on the growth and development of plants cultivated under Zn deficiency, in particular the effect of Propineb and Mancozeb on the growth and development of banana and tomato plants. Banana plants and tomato plants of the cultivar “Harzfeuer” were cultivated on rock wool at different zinc regimes, 100% and 0% zinc level, with and without Propineb or Mancozeb applications.
Tomato on rock wool has been sowed and approximately after 3 weeks, the plants have been transferred to rock wool bags. After the specified intervals the plants have been treated either 2 times preventive or one time curative and have been fertilized with a modified Hoagland solution which contained 100% or 0% zinc and having the composition as given below. Propineb and Mancozeb were applied. The fertilization was carried out in combination with the irrigation, using a drip application system.
Propineb has been applied through spray application of commercially available Antracol 70WG solution (conc. 0.15% Propineb). Mancozeb has been applied as commercially available Dithane NeoTec® 75WG (conc. 0.15% Mancozeb). Preventive treatments with Propineb or Mancozeb were carried out 27 days and 57 days (Treatment No. 3 and Treatment No. 5) after sowing. Curative applications of Propineb or Mancozeb were carried out 95 days (Treatment No. 4 and Treatment No. 6) after sowing according to the following regime:
The effect of preventive and curative treatments of Propineb and Mancozeb on the growth and development of tomato plants was evaluated by measuring the plant weight and plant height. The assessment of Treatment No. 3 and Treatment No. 5 was carried out 95 days after sowing. The morphological assessment of Treatment No. 4 and Treatment No. 6 was carried out 132 days after sowing.

The test system of experiment [2] is banana plants. Put plainly: Greenhouse test banana under zinc deficiency: leaf size and leaf weight. It is filed as in vivo. Conditions: 0% Zn supply. The method, then: as §1
(§2) Banana on rock wool has been sowed and approximately after 3 weeks, the plants have been transferred to rock wool bags. After the specified intervals the plants have been treated 2 times preventive or one time curative with Propineb and/or have been fertilized with a modified Hoagland solution which contained 100% or 0% zinc and having the composition as given below. The fertilization was carried out in combination with the irrigation, using a drip application system.
(§3) Propineb has been applied through spray application of commercially available Antracol 70WG solution (conc. 0.15% Propineb). Preventive treatments with Propineb were carried out 34 days and 57 days (Treatment No. 3) after sowing. Curative application of Propineb was carried out 85 days (Treatment No. 4) after sowing according to the following regime:
(§4) The effect of preventive and curative Propineb treatments on the growth and development of banana plants was evaluated by measuring the leaf size, leaf weight and the chlorophyll a fluorescence using a Handy PEA system. The assessment of Treatment No. 3 was carried out 101 days after sowing. The morphological assessment of Treatment No. 4 was carried out 121 days after sowing. The chlorophyll a fluorescence was measured 13 and 28 days after the curative application of Propineb.

Experiment [3] relates to banana plants. As to the kind of experiment: Greenhouse test banana under zinc deficiency: chlorophyll a fluorescence (Handy PEA). As to conditions: 0% Zn supply, curative treatment. It is filed as in vivo. The method, then: as §1, §2, §3, §4
Fv/Fm: Fv/Fm is a parameter widely used to indicate the maximum quantum efficiency of photosystem II(PSII) This parameter is widely considered to be a selective indication of plant photosynthetic performance with healthy samples typically achieving a maximum Fv/Fm value of approx. 0.85. Values lower than this will be observed if a sample has been exposed to some type of biotic or abiotic stress factor which has reduced the capacity for photo-chemical quenching of energy within PSII. Fv/Fm is presented as a ratio of variable fluorescence (Fv) over the maximum fluorescence value (Fm). The Performance Index is essentially an indicator of sample vitality. (See e.g. Advanced Techniques in Soil Microbiology, 2007, 11, 319-341; Applied Soil Ecology, 2000, 15, 169-182.)

The mark [4] stands for this setting: curative spray 95 days after sowing (conc. 0.15%), assessed 132 days after sowing.
Where [5] appears, read: preventive spray 27 and 57 days after sowing (conc. 0.15%), assessed 95 days after sowing.
Where [6] appears, read: curative spray 85 days after sowing (0.15% Propineb), assessed 121 days after sowing.
The mark [7] stands for this setting: preventive spray 34 and 57 days after sowing (0.15% Propineb), assessed 101 days after sowing.
Setting [8] is: 1st measurement (13 days after curative application).
Where [9] appears, read: 2nd measurement (28 days after curative application).

For `S=C(S)NCCNC(=S)S` [Zineb], the “yield and growth compared to untreated vines” value in the experiment on vines (vines, ISHS Acta Horticulturae 1987, 199, 157-161) was “significantly greater yield and growth”.

`O=S(=O)([O-])[O-].[Zn+2]` [zinc sulfate]: the “yield and growth compared to untreated vines” value in the experiment with vines (in vivo) was “significantly greater yield and growth”.

In the case of Propineb, the Plant weight in experiment [1] (setting [4]) was 568 g. Moreover, in experiment [1] (setting [5]), the Plant height is 76 and the Plant weight is listed as 341 g. Further, in the experiment with banana plants [2] (setting [6]), the Leaf size is 2101 ± 612 cm^2 and the Leaf weight is listed as 90 g. In addition, in the experiment on banana plants [2] (setting [7]), the Average leaf size turned out to be 2062 ± 284 cm^2 and the Average leaf weight stood at 76 g. Further, in the experiment with banana plants [3] (setting [8]), the Fv/Fm turned out to be 0.82 and the Performance index turned out to be 2.21. In the experiment on banana plants [3] (setting [9]), the Fv/Fm is reported as 0.83 and the Performance index turned out to be 2.69.

Mancozeb: the Plant weight in experiment [1] (setting [4]) amounted to 409 g. Moreover, in experiment [1] (setting [5]), the Plant height is recorded as 64 and the Plant weight is 249 g.
